Assay results from patent publication EP0755382B1, “QUINOLONE DERIVATIVE FOR TREATMENT OF URINARY INCONTINENCE” (AstraZeneca AB, priority 1994, dated 1995).

Experiments:
intestinal smooth muscle = details: Vitolinya et al, Khim.-Farm. Zh., 15(1), 39-42, 1981; cited from earlier work
bladder = assay: in vivo test in conscious catheterized rats: interval between bladder contractions, heart rate and MAP after oral dosing; set-up: species or system Wistar rats; details: dosed orally, 3 mg/kg
Protocol: Hale Wistar rats (400 - 500 g) are anesthetized with 50 mg/kg Nembutal, i.p. For each rat, the abdominal region and the front and back of the neck are shaved and povidone-iodine is applied to the skin. For carotid catheterization, the left carotid artery is exposed via a small ventral cervical incision. The exposed area is flushed with a 2% lidocaine HCl solution to relax the vessel. The catheter, filled with 0.9% saline, is introduced approximately 2.4 cm into the artery so that its tip resided in the aortic arch. The distal end of the catheter is exteriorized at the nape of the neck, filled with heparin (1000 units/ml) and heat sealed. For bladder catheterization, the bladder is exposed through a midline abdominal incision. […]
The rats are weighed, orally sham-dosed (dosing needle introduced, but no fluid expelled), and transvesical saline infusion (.18 ml/min) is begun and continued throughout the experiment. Variations in blood pressure, heart rate, intravesical pressure and urine output are recorded on either a Grass Polygraph or a Gould TA4000 recording system. […] At this point, a basal level of each experimental parameter is recorded and the rats are administered by oral gavage the appropriate dose of compound (in a 75% PEG 400 - saline vehicle) in concentrations such that the volume is 1 ml/kg body weight. […]

[1] = test system: guinea pig detrusor strips; assay: first in vitro test: relaxation of guinea pig bladder detrusor strips contracted with 15 mM KCl; assay type: cell-based, guinea pigs; details: Cavia porcellus
Excerpt: The actions of the compound as a smooth muscle relaxant useful as a therapeutic agent for the treatment of urinary incontinence through its action to open potassium channels and hyperpolarize the membrane potential in the bladder detrusor smooth muscle can be shown using suitably designed in vitro tests, such as the one described following. […] "IC50" is a well understood term and means the concentration of test compound which causes a 50% decrease in the in vitro contraction of the bladder tissue described in the following test.
Hale albino Hartley guinea pigs (450-500g) are sacrificed by carbon dioxide induced asphyxiation and quickly exsanguinated. The lower abdominal cavity is opened and the urinary bladder isolated. The bladder is cleaned of surrounding connective and adipose tissue, and the portion above the ureteral orifices is removed and washed in Krebs-Henseleit buffer solution of the following composition (in mH): NaCl 118.0, KCl 4.7, […] 1.2, KH2PO4 1.2, CaCl2 2.5, NaHCO3 25.0 and d-glucose 11.1. The solution is warmed to 37°C and gassed with 95% O2 and 5% CO2. […]
When the tissue relaxes to a steady state after the final washing, 15 mM KCl is again applied. […] The effect of the compound at each dose is expressed as % of the maximum inhibitory response, which is further normalized with respect to the corresponding effect of the compound vehicle control. […]

[2] = test system: guinea pig detrusor strips; assay: second in vitro test: relaxation of guinea pig bladder detrusor strips contracted with 80 mM KCl; assay type: cell-based, guinea pigs; details: for potency in the second test compared with the first test: 80 mM KCl (second test) versus 15 mM KCl (first test)
Protocol: This second in vitro test is similar to the one described above with regard to tissue preparation and data acquisition. However, the following exceptions are noted. In this second test, the contraction of the detrusor strips during priming and after the equilibration period is achieved with 80 mM instead of 15 mM KCl (total concentration in the bath).
Typical calcium channel blockers like nifedipine, nimodipine, isradipine, and verapamil are able to relax and reduce the myogenic activity of guinea pig detrusor strips in both tests by virtue of their blocking action on calcium channels.

urinary incontinence = details: preliminary clinical trial; Nurse et al., British Journal of Urology (1991), 68, 27-31; cited from earlier work

Q: With `CC1=C(C#N)C(c2ccccc2)C2=C(CC(C)(C)CC2=O)N1` (centres unmarked) [3-Cyano-4-phenyl-2,7,7-trimethyl-4,6,7,8-tetrahydro-5(1H)-quinolone] as the compound, how does the “effect on the cardiovascular system” value (intestinal smooth muscle) read?
A: hypotensive properties

Q: And the “spasmogenic effect of acetylcholine and barium chloride on intestinal smooth muscle” value (intestinal smooth muscle)?
A: capable of blocking the spasmogenic effect

Q: What does the source list for `N#Cc1cccc([C@@H]2C=C(C(F)(F)F)NC3=C2C(=O)CCC3)c1` [The compound, (S)-(-)-4-(3-Cyanophenyl)-2-trifluoromethyl-4,6,7,8-tetrahydro-5(1H)-quinolone]?
A: activity and selectivity for the bladder (bladder): active and selective for the bladder without significant cardiovascular effects; IC50 ([1]; concentration causing a 50% decrease in the in vitro contraction of the bladder tissue): 4.2 µM; IC50 ([2]; Cavia porcellus, second test, 80 mM KCl): 41.1 µM

Q: Which “treatment of urinary incontinence” value (urinary incontinence) does the source give for `CC1(C)Oc2ccc(C#N)cc2C(N2CCCC2=O)C1O` (centres unmarked) [cromakalim] here?
A: effective

Q: And the IC50 ([1]; first test)?
A: 0.6 to 0.9 µM

Q: And the relaxant activity ([2]; second test, 80 mM KCl, at concentrations as high as 30 µM)?
A: insignificant relaxant activity

Q: Which “potency in the second test compared with the first test” value [2] does the source give for `COC(=O)C1=C(C)NC(C)=C(C(=O)OC(C)C)C1c1cccc2nonc12` (centres unmarked) [isradipine] here?
A: more potent in the second test

Q: With `COc1ccc(Cc2nccc3cc(OC)c(OC)cc23)cc1OC` [papaverine] as the compound, how does the “sustained tension after high KCl stimulation” value ([2]; 80 mM KCl, 300 µM) read?
A: totally abolished

Q: With `COc1ccc(CCN(C)CCCC(C#N)(c2ccc(OC)c(OC)c2)C(C)C)cc1OC` (centres unmarked) [verapamil] as the compound, how does the “potency in the second test compared with the first test” value [2] read?
A: more potent in the second test
